Assay [1] relates to faecal microbiota. In words: Faecal batch culture with antibiotics promoting CRE colonisation: 1H-NMR of nutrients and metabolites. Format: cell-based, human. The note with it: 11 healthy donors, antibiotic at faecal concentration, 24 hours anaerobic. The protocol:
The inventors performed faecal culture experiments to measure the effects of eight broad-spectrum antibiotics on the faecal microbiota collected from 11 healthy human donors. Faecal culture experiments were performed under anaerobic conditions using a complex gut growth medium that was designed to mimic the nutrients found in the human distal gut (McDonald, J. A. et al. Evaluation of microbial community reproducibility, stability and composition in a human distal gut chemostat model. J. Microbiol. Methods 95, 167-174 (2013)). […] Moon, Y. S., Chung, K. C. & Gill, M. A. Pharmacokinetics of meropenem in animals, healthy volunteers, and patients. Clin Infect Dis 24, S249-S255 (1997). Kager, L., Brismar, B., Malmborg, A. S. & Nord, C. E. Imipenem concentrations in colorectal surgery and impact on the colonic microflora. Antimicrob Agents Chemother 33, 204-8 (1989). Pletz, M. et al. Ertapenem pharmacokinetics and impact on intestinal microflora, in comparison to those of ceftriaxone, after multiple dosing in male and female volunteers. Antimicrob Agents Chemother 48, 3765-72 (2004). Nord, C. E., Brismar, B., Kasholm-Tengve, B. & Tunevall, G. Effect of piperacillin/tazobactam treatment on human bowel microflora. J Antimicrob Chemother 31, 61-5 (1993). […] Antimicrob Agents Chemother 63, 2244 (2019). Pessôa de Menezes e Silva, C H. Elaboration and evaluation of a new screening medium for detection and presumptive identification of extended-spectrum beta-lactamase-producing organisms (ESBL). Braz J Microbiol 31, 271-274 (2000). Brismar, B., Edlund, C., Malmborg, A. S. & Nord, C. […] Antimicrob Agents Chemother 34, 481-3 (1990)). Cultures were incubated anaerobically at 37° C. for 24 hours. Samples were analysed by ^1H-NMR spectroscopy (for nutrient and metabolite profiling) and […] rRNA gene sequencing with 16S rRNA gene qPCR (for bacterial composition and biomass) (McDonald, J. A. K. et a/. Inhibiting Growth of Clostridioides difficile by Restoring Valerate, Produced by the Intestinal Microbiota. Gastroenterology 155, 1495-1507 (2018)).
Supernatants were prepared from faeces by vortexing 300 mg of faeces in 900 μl of HPLC-grade water for 10 minutes at 3000 rpm followed by centrifugation at 17,000×g for 10 minutes at 4° C. Supernatants were prepared from faecal culture samples by centrifugation at 17,000×g for 10 minutes at 4° C. Supernatants were frozen at −80° C. until they were ready for analysis.
^1H-NMR spectroscopy was performed as previously described (McDonald, J. A. K. et al. Inhibiting Growth of Clostridioides difficile by Restoring Valerate, Produced by the Intestinal Microbiota. Gastroenterology 155, 1495-1507 (2018)). Briefly, sample supernatants were randomized and defrosted at room temperature for 1 hour. Sample supernatants were then centrifuged for 10 min at 17 000×g and 4° C. The pellet was discarded and 400 μl of supernatant was added to 250 μl NMR buffer (28.85 g Na2HPO4, 5.25 g NaH2PO4, 1 mM TSP, 3 mM NaN3, deuterium oxide to 1 L, pH 7.4). 600 μl of sample was used to fill each 5 mm NMR tube to be loaded into the SampleJet system.
^1H-NMR spectroscopy was performed using the Bruker AVANCE III HD 800 MHz spectrometer (Bruker Bio-Spin, Rheinstetten, Germany). 1D spectra (a standard NOESYGPPR1D pulse sequence (RD-90°-t1-90°-tm-90°-ACQ)) as well as 2D spectra (standard 2D JRESGPPRQF pulse sequence) were acquired. A recycle delay of 4 seconds and mixing time of 100 ms was used. The 90° pulse length was approximately 10 μs and 32 scans were recorded.
NMR spectra were imported into MATLAB r2019b (The Mathworks, USA) using an in-house script. Spectra were aligned and the water (4.6-5 ppm) and TSP (−0.2-0.2 ppm) peaks were cut. Compounds were identified by comparison to spectral databases in Chenomx NMR Suite (Chenomx, Canada). Representative peaks were integrated for quantification of compounds.

Assay [2] deals with NDM-1 Enterobacter cloacae. Kind of assay: Carbon utilisation assay. Format: cell-based. The note with it: anaerobic; M9 minimal medium, 0.5% (w/v) carbon source. The protocol: (§1) New Delhi Metallo-β-lactamase 1 (NDM-1) Escherichia coli, NDM-1 Klebsiella pneumoniae, and NDM-1 Enterobacter cloacae were isolated from patients with intestinal CRE colonisation from the Imperial College Healthcare NHS Trust via rectal swab (REC ref. 19/LO/0112). The species were assigned by matrix assisted laser desorption ionization-time of flight (MALDI-TOF) mass spectrometry and later confirmed with 16S rRNA gene sequencing. CRE status was determined using X-pert Carba-R PCR detection (Cepheid, Sunnyvale, CA, USA), (Otter, J. A. et al. Detecting carbapenemase-producing Enterobacterales (CPE): an evaluation of an enhanced CPE infection control and screening programme in acute care. J Antimicrob Chemother 75, 2670-2676 (2020)).
(§2) Growth of CRE isolates on sole carbon or nitrogen sources was tested by inoculating each CRE isolate into a minimal medium supplemented with the nutrient of interest. First, CRE isolates were passaged from frozen glycerol stocks on Reasoner's 2A agar (R2A) plates. Cells were then suspended in M9 minimal media to a turbidity of 42% using a Turbidimeter (Biolog Inc.), then diluted a further 1 in 6 to inoculate the carbon or nitrogen utilisation assays. M9 minimal media contained the following (at final concentrations): 22 mM KH2PO4, 42 mM Na2HPO4, 9 mM NaCl, 0.49 mM MgSO4·7H2O, 0.09 mM CaCl2), 0.011 mM FeSO4·7H2O. For the carbon assays the M9 minimal medium was also supplemented with 0.1% (w/v) NH4Cl (as the nitrogen source) and the carbon sources were individually tested at 0.5% (w/v) concentration. For the nitrogen assays the M9 minimal medium was also supplemented with 0.5% (w/v) glucose (as the carbon source) and the nitrogen sources were individually tested at 0.1% (w/v) concentration. Cultures were incubated anaerobically and aerobically in a plate reader and OD600 readings were collected every 15 minutes for 24 hours.
(§3) Growth curves were analysed in Python (v3.6.5) using the AMiGA software (Midani, F. S., Collins, J. & Britton, R. A. AMiGA: Software for Automated Analysis of Microbial Growth Assays. mSystems 6, e0050821 (2021)). Growth of each isolate was measured with 6 wells from 2-3 independent experiments. Growth curves were normalised to the no substrate control using the subtraction method. AMiGA performed Gaussian Process regression to test differential growth between the substrate and the no substrate control. The functional difference in the OD (and its credible interval) was also computed between the substrate and the no substrate control.

Assay [3] has as its system NDM-1 Escherichia coli. Kind of assay: Carbon utilisation assay. Format: cell-based. The note with it: anaerobic; M9 minimal medium, 0.5% (w/v) carbon source. The protocol:
as §1, §2, §3

Assay [4] relates to NDM-1 Klebsiella pneumoniae. In words: Carbon utilisation assay. It counts as cell-based. The note with it: anaerobic; M9 minimal medium, 0.5% (w/v) carbon source. On the procedure: as §1, §2, §3
In assay [5] the test system is vancomycin-resistant E. faecium. In words: VRE nutrient utilization protocol: carbon sources. It counts as cell-based, Enterococcus faecium. Particulars: aerobic; VRE minimal medium. On the procedure:
(§4) VRE minimal media consists of potassium phosphate monobasic (4 g/L), potassium phosphate dibasic (14 g/L), sodium citrate (1 g/L), magnesium sulphate (0.2 g/L), ammonium sulphate (2 g/L), adenosine (0.04 g/L), thymine (0.04 g/L), Kao and Michayluk vitamin solution [Sigma, K3129, 50× Stock](5×), glucose (1 g/L) and amino acid solution [Sigma, R7131, RPMI-1640, 50×](25×). If the study was performed under anaerobic conditions, fumarate (5.2 g/L) was added to increase growth of VRE strains. Carbon-free minimal media was prepared by leaving out glucose while nitrogen-free minimal media was prepared without the amino acid solution. Media was filter sterilized with a 0.22 micron filter and used immediately aerobically or degassed overnight if used anaerobically.
(§5) VRE strains were grown on R2A overnight before the cells were suspended in 0.9% saline to an OD of 0.38 (λ=595 nm). A 10% dilution of the cell suspension was prepared using VRE minimal media to achieve a final well OD of […] (λ=595 nm) greater than the sterile media OD. Both carbon and nitrogen source utilization were evaluated by adding the inoculated media and a filter-sterilised nutrient source solution into a well in a 1:1 ration to a final volume of 100 μL in aerobic tests and 200 μL in anaerobic tests. Carbon sources were tested individually and compared to a carbon-free control. To test nitrogen source utilization, a nitrogen source solution was prepared containing L-alanine (2 g/L), L-arginine (2.5 g/L, L-asparagine (0.71 g/L), L-aspartate (0.25 g/L), L-cysteine (0.625 g/L), L-glutamate (0.25 g/L), L-Glycine (0.125 g/L), L-histidine (0.1875 g/L), L-isoleucine (0.625 g/L), L-leucine (0.625 g/L), L-lysine HCl (0.5 g/L), L-methionine (0.1875 g/L), L-phenylalanine (0.1875 g/L), L-proline (0.25 g/L), L-serine (0.375 g/L), L-threonine (0.25 g/L), L-tryptophan (0.0625 g/L), L-tyrosine (0.29 g/L), L-valine (0.25 g/L), N-acetylglucosamine (2 g/L), and uracil (2.5 g/L). To test the strains' ability to utilize individual nitrogen sources, separate solutions were prepared eliminating one nitrogen source each. The change in growth compared to the complete nitrogen source solution control was used to determine nitrogen utilization. All carbon and nitrogen sources were tested in a technical triplicate for each biological replicate. Aerobic plates were incubated with a plate seal while anaerobic plates were not. The aerobic plate reader was set to read the plate (λ=595 nm, 37° C., 22 flashes per well, orbital shaking of 100 rpm for 15 s prior to each read) every 15 minutes for 24 hours. The anaerobic plate reader read the plate (λ=595 nm, 37° C., stationary) every 15 minutes for 24 hours.

In assay [6] the test system is NDM-1 Escherichia coli. In words: Nitrogen utilisation assay. It counts as cell-based. Particulars: aerobic; M9 minimal medium with glucose, 0.1% (w/v) nitrogen source. On the procedure: as §1, §2, §3
Assay [7] deals with NDM-1 Enterobacter cloacae. Kind of assay: Nutrient preference assay (nutrient mixture). It counts as cell-based. Particulars: M9 with […] of each nutrient, up to 24 hours. On the procedure: as §1
(§6) CRE isolates were passaged once from frozen glycerol stocks on R2A plates. Cells were suspended in M9 minimal media to a turbidity of 42% using a Turbidimeter (Biolog Inc.), then diluted 1 in 6 to inoculate the nutrient preference assays. M9 minimal media was supplemented with 0.015% of each of the following: L-arabinose, D-fructose, L-fucose, D-galactose, D-glucose, D-mannose, D-ribose, D-xylose, N-acetylglucosamine, D-maltose, sucrose, D-trehalose, L-alanine, L-arginine, L-aspartate, L-glutamate, L-glycine, L-isoleucine, L-leucine, L-lysine, L-methionine, L-phenylalanine, L-proline, L-threonine, L-tryptophan, L-tyrosine, L-valine, uracil, and succinate. Cultures were incubated anaerobically and aerobically in a plate reader and OD600 readings were collected every 15 minutes for 24 hours. Cultures were also incubated anaerobically and aerobically for 24 h and samples were collected at 0, 4, 8, and 24 hours post-inoculation for 1H-NMR spectroscopy. Changes in nutrients and metabolites by CRE isolates was compared to the sterile media control over time using a two-way mixed ANOVA followed by pairwise comparisons with Bonferroni correction. […]

In assay [8] the test system is NDM-1 Escherichia coli. In words: Nutrient preference assay (nutrient mixture). It counts as cell-based. Particulars: M9 with […] of each nutrient, up to 24 hours. On the procedure:
as §1, §6

In assay [9] the test system is NDM-1 Klebsiella pneumoniae. In words: Nutrient preference assay (nutrient mixture). Format: cell-based. The note with it: M9 with […] of each nutrient, up to 24 hours. On the procedure: as §1, §6
In assay [10] the test system is vancomycin-resistant E. faecalis. Kind of assay: VRE nutrient utilization protocol: nitrogen sources, leave-one-out. Particulars: aerobic; leave-one-out from nitrogen source mixture in minimal medium. It counts as cell-based, Enterococcus faecalis. On the procedure:
as §4, §5

Assay [11] relates to vancomycin-resistant E. faecium. Described as above. The note with it: aerobic; leave-one-out from nitrogen source mixture in minimal medium. Format: cell-based, Enterococcus faecium. The protocol: as §4, §5

Consider five compounds from patent US20260183350A1, “ANTIBIOTIC-RESISTANT BACTERIA” (priority 2022, published 2026).

For `C[C@@H](O)[C@H]1C(=O)N2C(C(=O)O)=C(S[C@@H]3CN[C@H](C(=O)Nc4cccc(C(=O)O)c4)C3)[C@H](C)[C@H]12` [ETP, ertapenem], the “Change in butyrate concentration in faecal cultures” value (from here on “Change in butyrate concentration”) in assay [1] is on record as “decreased”.

With `O=C[C@H](O)[C@@H](O)[C@@H](O)CO` [arabinose, L-arabinose], in assay [2], the “Use as sole carbon source to support E. cloacae growth” value was “could use”. Also, the “Use as sole carbon source to support E. coli growth” value in assay [3] is recorded as “could use”. Further, the “Use as sole carbon source to support K. pneumoniae growth” value in assay [4] is given as “could use”. Also, the “Use as sole carbon source to support E. faecium growth” value in assay [5] is “could use”.

For the compound imipenem/cilastatin [IPM], the “Change in butyrate concentration” value in assay [1] is “increased”.

As to `N[C@@H](Cc1c[nH]c2ccccc12)C(=O)O` [tryptophan, L-tryptophan], in [6], the “Use as sole nitrogen source to support E. coli growth” value is recorded as “able to grow”. Further, the “Utilisation of nutrient by E. cloacae from nutrient mixture (1H-NMR)” value in assay [7] (aerobic) and in [7] (anaerobic) was “not utilised” each time. Besides, the “Utilisation of nutrient by E. coli from nutrient mixture (1H-NMR)” value is “high utilisation” in assay [8] (aerobic) and “moderate utilisation” in assay [8] (anaerobic). For the same compound, the “Utilisation of nutrient by K. pneumoniae from nutrient mixture (1H-NMR)” value in [9] (aerobic) and in assay [9] (anaerobic) was “not utilised” in each case. Further, the “Use as sole carbon source to support E. faecium growth” value in assay [5] is reported as “could use”. For the same compound, the “Use as nitrogen source to support E. faecalis growth” value in assay [10] is reported as “could use”. In addition, the “Use as nitrogen source to support E. faecium growth” value in assay [11] is “could use”.

With `C[C@@H](O)[C@H]1C(=O)N2C(C(=O)O)=C(S[C@@H]3CN[C@H](C(=O)N(C)C)C3)[C@H](C)[C@H]12` [MEM, meropenem], the “Change in butyrate concentration” value in assay [1] is listed as “increased”.
